Assay results taken from US7919329B2, “Method for screening for agents that affect food intake” (Oregon Health & Science University, priority 2001, dated 2011).
Where two headings read alike, the source gives them in different places. No end group written: not given here.

How the values were obtained:
[1] = test system: POMC neurons; test: Whole cell recordings of membrane potential of EGFP-labeled POMC neurons in arcuate (ARC) slices; type: cell-based, mouse
[2] = test system: POMC neurons; test: Action potential frequency / firing rate of POMC neurons (whole cell and loose cell-attached); type: cell-based, mouse; conditions: for POMC neuron firing rate (frequency of action potentials): fenfluramine 20 μM, loose-cell-attached, n=3
[3] = test system: POMC neurons; test: GABAergic IPSCs recorded in POMC neurons of ARC slices; type: cell-based, mouse
[4] = test system: hypothalamic explants; conditions: hypothalamic explants (Batterham et al.); cited from earlier work
[5] = test system: POMC neurons; test: I-V relationships of drug-induced currents in POMC neurons; type: cell-based, mouse; conditions: leptin 100 nM, slow voltage ramps
[6] = test system: non-POMC neurons in the arcuate nucleus; test: Membrane potential of non-fluorescent (non-POMC) neurons in the arcuate nucleus; type: cell-based, mouse; conditions: 13 cells tested; also hyperpolarized 5 and depolarized 3

Compound: CCNC(C)Cc1cccc(C(F)(F)F)c1 (stereo not drawn) [Fenfluramine, fenfluramine]
- resting membrane potential of POMC neurons (depolarization) [1]: depolarized POMC neurons
- POMC neuron firing rate (frequency of action potentials) [2]: two fold increase
- POMC neuron firing rate (frequency of action potentials) ([2]; listed as d-FEN): doubling

Compound: Clc1cncc(N2CCNCC2)n1 [MK 212, 6-Chloro-2-(1-piperazinyl)pyrazine]
- resting membrane potential of POMC neurons (depolarization) [1]: depolarized POMC neurons

Compound: NC1=N[C@H](O)[C@H]2[C@H]3O[C@]4(O)O[C@@H]([C@@H](O)[C@@]2(N1)[C@@H]4O)[C@]3(O)CO [TTX, tetrodotoxin]
- large amplitude IPSCs [3]: abolished large IPSCs

Compound: Clc1cccc(N2CCNCC2)c1 [mCPP, 1-(3-Chlorophenyl)piperazine]
- resting membrane potential of POMC neurons (depolarization) [1]: depolarized POMC neurons

Compound: NCCc1c[nH]c2ccc(O)cc12 [serotonin]
- resting membrane potential of POMC neurons (depolarization) ([1]; serotonin receptor agonists bath-applied four minutes, whole cell, n=4-8 per dose): increased the resting membrane potential (depolarized)

Compound: D-Trp^8-γMSH
- increase of frequency of GABAergic IPSCs ([3]; D-Trp8-γMSH 7 nM, 3 of 4 POMC neurons): 280±90%
- frequency of action potentials ([2]; D-Trp8-γMSH 7 nM): decreased the frequency of action potentials

Compound: N-acetyl (Leu^28, Leu^31) NPY (24-36) (Ac-LRHYLNLLTRQRY; ends and bridges not checked) [Y2A]
- depolarization of POMC neurons ([1]; whole cell, PYY3-36 (10 nM, FIG. 6a) n=22, 19 of 22 depolarized, Y2A n=9): 8.7±1.8 mV
- reduction of frequency of IPSCs onto POMC neurons ([3]; PYY3-36 (50 nM, FIG. 6c) n=13, Y2A n=8): 44.4±9.3%
- A-MSH release [4]: concomitant increase in A-MSH release
- NPY release [4]: significantly decreased NPY release

Compound: ghrelin: agent known to increase feeding, caloric intake, and appetite, and decrease energy expenditure (GSSFLSPEHQRVQQRKESKKPPAKLQPR; ends and bridges not checked; UniProt Q9UBU3 24-51, looked up)
- hyperpolarization of POMC neurons, mean ([1]; ghrelin 50 nM, three minutes, whole cell): 1.47±0.7 mV
- frequency of IPSCs in POMC neurons ([3]; ghrelin 50 nM): increase in the frequency of IPSCs
- decrease of action potential firing rate of POMC neurons ([2]; ghrelin 50 nM, loose cell attached mode): 50%

Compound: leptin: adipostatic hormone
- reversal of small inward current [5]: approximately −20 mV
- time to depolarization after addition ([1]; leptin 0.1-100 nM): 2 to 10 min
- depolarization of POMC cells ([1]; leptin 0.1-100 nM, 72 of 77 POMC cells): 3-30 mV
- inhibition of IPSCs in the presence of tetrodotoxin (TTX) [3]: still inhibited IPSCs
- decrease of frequency of GABAergic IPSCs ([3]; 100 nM, leptin in 5 out of 15 cells, NPY in all 12 POMC cells tested): 25%
- effect on adjacent non-fluorescent ARC cells [6]: no effect on 5 of 13 adjacent non-fluorescent cells tested

Compound: met-enkephalin (YGGFM)
- spontaneous action potential generation [2]: prevented spontaneous action potential generation

Compound: neuropeptide Y [NPY]
- hyperpolarization of POMC neurons (average) ([1]; NPY, n=3, all POMC neurons tested): 9±6 mV
- inhibition of IPSCs in the presence of tetrodotoxin (TTX) [3]: still inhibited IPSCs
- time to decrease of IPSC frequency ([3]; NPY 100 nM): ≤ 3 min

Compound: picrotoxin
- IPSCs [3]: blocked all IPSCs
